Assay results from ChEMBL document CHEMBL1201862, “PubChem BioAssay data set” (2004).
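Protocol summary: plate cells (96-well), add compound at 5 concentrations, incubate 48 h, interpolate endpoints linearly. GI50 is the concentration that inhibits growth by half.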 The source made the active and inactive calls. Cut-off read from the data, not from the text of the source: active = GI50 up to about 1.1 µM and inactive = higher.

Key:
Experiment in all cases: NCI-60 cell line screen, 48 h
[1] = test system: KM12
[2] = test system: NCI/ADR-RES
[3] = test system: HCC 2998
[4] = test system: SF-295
[5] = test system: NCI-H522
[6] = test system: LOX IMVI
[7] = test system: T47D
[8] = test system: HOP-92
[9] = test system: EKVX
[10] = test system: SK-MEL-28
[11] = test system: NCI-H23
[12] = test system: K562
[13] = test system: OVCAR-8
[14] = test system: SK-MEL-5
[15] = test system: SK-MEL-2
[16] = test system: RPMI-8226
[17] = test system: 786-0
[18] = test system: HCT-116
[19] = test system: CAKI-1
[20] = test system: SF-268
[21] = test system: SF-539
[22] = test system: COLO 205
[23] = test system: BT-549
[24] = test system: MDA-MB-231
[25] = test system: CCRF-CEM
[26] = test system: SK-OV-3
[27] = test system: NCI-H460
[28] = test system: U-251
[29] = test system: SW-620
[30] = test system: HOP-62
[31] = test system: HL-60
[32] = test system: RXF 393
[33] = test system: MCF7
[34] = test system: A549
[35] = test system: UACC-257
[36] = test system: UO-31
[37] = test system: NCI-H226
[38] = test system: OVCAR-3
[39] = test system: OVCAR-4
[40] = test system: ACHN
[41] = test system: IGROV-1
[42] = test system: DU-145
[43] = test system: PC-3
[44] = test system: SNB-75
[45] = test system: MOLT-4
[46] = test system: MDA-N
[47] = test system: MDA-MB-435
[48] = test system: HCT-15
[49] = test system: Hs-578T
[50] = test system: M14
[51] = test system: UACC-62
[52] = test system: HT-29
[53] = test system: OVCAR-5
[54] = test system: SNB-19
[55] = test system: TK-10
[56] = test system: SN12C
[57] = test system: A498
[58] = test system: Malme-3M

O=C1/C(=C/c2ccc3c(c2)OCO3)Sc2scc(-c3ccc(O)c(O)c3)[n+]21
GI50 [1]: 2.65 µM (inactive)
GI50 [2]: 1.87 µM (inactive)
GI50 [3]: 1.82 µM (inactive)
GI50 [4]: 10 µM (inactive)
GI50 [5]: 1.04 µM (active)
GI50 [6]: 2.34 µM (inactive)
GI50 [7]: 2.97 µM (inactive)
GI50 [8]: 2.65 µM (inactive)
GI50 [9]: 2.67 µM (inactive)
GI50 [10]: 3.08 µM (inactive)
GI50 [11]: 2.69 µM (inactive)
GI50 [12]: 0.506 µM (active)
GI50 [13]: 2.99 µM (inactive)
GI50 [14]: 2.54 µM (inactive)
GI50 [15]: 10.8 µM (inactive)
GI50 [16]: 1.71 µM (inactive)
GI50 [17]: 1.92 µM (inactive)
GI50 [18]: 1.96 µM (inactive)
GI50 [19]: 1.53 µM (inactive)
GI50 [20]: 3.9 µM (inactive)
GI50 [21]: 2.31 µM (inactive)
GI50 [22]: 2.55 µM (inactive)
GI50 [23]: 2.04 µM (inactive)
GI50 [24]: 3.54 µM (inactive)
GI50 [25]: 0.264 µM (active)
GI50 [26]: 8.11 µM (inactive)
GI50 [27]: 3.56 µM (inactive)
GI50 [28]: 4.62 µM (inactive)
GI50 [29]: 1.99 µM (inactive)
GI50 [30]: 6.44 µM (inactive)
GI50 [31]: 0.325 µM (active)
GI50 [32]: 3.11 µM (inactive)
GI50 [33]: 3.22 µM (inactive)
GI50 [34]: 11.1 µM (inactive)
GI50 [35]: 3.6 µM (inactive)
GI50 [36]: 2.29 µM (inactive)
GI50 [37]: 13.3 µM (inactive)
GI50 [38]: 4.61 µM (inactive)
GI50 [39]: 4.2 µM (inactive)
GI50 [40]: 1.86 µM (inactive)
GI50 [41]: 2.7 µM (inactive)
GI50 [42]: 4.44 µM (inactive)
GI50 [43]: 4.38 µM (inactive)
GI50 [44]: 0.644 µM (active)
GI50 [45]: 0.927 µM (active)
GI50 [46]: 3.12 µM (inactive)
GI50 [47]: 3.3 µM (inactive)
GI50 [48]: 1.63 µM
GI50 [49]: 7.13 µM (inactive)
GI50 [50]: 3 µM (inactive)
GI50 [51]: 2.67 µM (inactive)
GI50 [52]: 3.74 µM (inactive)
GI50 [53]: 8.32 µM (inactive)
GI50 [54]: 10.7 µM (inactive)
GI50 [55]: 2.04 µM (inactive)
GI50 [56]: 2.04 µM (inactive)

CN(C)CCNC(=O)c1cccc(NC(=O)c2ccccc2)c1[N+](=O)[O-]
GI50 [1]: > 100 µM (inactive)
GI50 [2]: > 100 µM (inactive)
GI50 [3]: > 100 µM (inactive)
GI50 [4]: > 100 µM (inactive)
GI50 [5]: > 100 µM (inactive)
GI50 [7]: > 100 µM (inactive)
GI50 [10]: > 100 µM (inactive)
GI50 [11]: > 100 µM (inactive)
GI50 [13]: > 100 µM (inactive)
GI50 [14]: 77.1 µM (inactive)
GI50 [15]: > 100 µM (inactive)
GI50 [17]: > 100 µM (inactive)
GI50 [18]: > 100 µM (inactive)
GI50 [19]: > 100 µM (inactive)
GI50 [20]: > 100 µM (inactive)
GI50 [22]: 8.65 µM (inactive)
GI50 [23]: 53.8 µM (inactive)
GI50 [24]: > 100 µM (inactive)
GI50 [25]: > 100 µM (inactive)
GI50 [26]: > 100 µM (inactive)
GI50 [27]: 93.5 µM (inactive)
GI50 [28]: > 100 µM (inactive)
GI50 [29]: > 100 µM (inactive)
GI50 [30]: > 100 µM (inactive)
GI50 [31]: > 100 µM (inactive)
GI50 [33]: > 100 µM (inactive)
GI50 [34]: > 100 µM (inactive)
GI50 [35]: > 100 µM (inactive)
GI50 [36]: > 100 µM (inactive)
GI50 [37]: > 100 µM (inactive)
GI50 [38]: 27.7 µM (inactive)
GI50 [57]: > 100 µM (inactive)
GI50 [40]: > 100 µM (inactive)
GI50 [41]: > 100 µM (inactive)
GI50 [42]: > 10 µM (inactive)
GI50 [43]: > 100 µM (inactive)
GI50 [58]: 12.8 µM (inactive)
GI50 [44]: 36 µM (inactive)
GI50 [45]: > 100 µM (inactive)
GI50 [46]: > 100 µM (inactive)
GI50 [47]: > 100 µM (inactive)
GI50 [48]: > 100 µM
GI50 [49]: > 100 µM (inactive)
GI50 [50]: > 100 µM (inactive)
GI50 [51]: > 100 µM (inactive)
GI50 [52]: 25.5 µM (inactive)
GI50 [53]: > 100 µM (inactive)
GI50 [54]: > 100 µM (inactive)
GI50 [55]: > 100 µM (inactive)
GI50 [56]: > 100 µM (inactive)

C/C(=N\c1cccc(Cl)c1)c1ccncc1
GI50 [1]: > 100 µM (inactive)
GI50 [2]: > 100 µM (inactive)
GI50 [3]: > 100 µM (inactive)
GI50 [4]: > 100 µM (inactive)
GI50 [5]: > 100 µM (inactive)
GI50 [6]: > 100 µM (inactive)
GI50 [7]: > 100 µM (inactive)
GI50 [8]: > 100 µM (inactive)
GI50 [9]: > 100 µM (inactive)
GI50 [10]: > 100 µM (inactive)
GI50 [11]: > 100 µM (inactive)
GI50 [12]: > 100 µM (inactive)
GI50 [13]: > 100 µM (inactive)
GI50 [14]: > 100 µM (inactive)
GI50 [15]: > 100 µM (inactive)
GI50 [16]: > 100 µM (inactive)
GI50 [17]: > 100 µM (inactive)
GI50 [18]: > 100 µM (inactive)
GI50 [19]: > 100 µM (inactive)
GI50 [20]: 14.6 µM (inactive)
GI50 [21]: > 100 µM (inactive)
GI50 [22]: > 100 µM (inactive)
GI50 [23]: > 100 µM (inactive)
GI50 [24]: > 100 µM (inactive)
GI50 [25]: > 100 µM (inactive)
GI50 [26]: > 100 µM (inactive)
GI50 [27]: > 100 µM (inactive)
GI50 [28]: > 100 µM (inactive)
GI50 [29]: > 100 µM (inactive)
GI50 [30]: > 100 µM (inactive)
GI50 [32]: > 100 µM (inactive)
GI50 [33]: > 100 µM (inactive)
GI50 [34]: > 100 µM (inactive)
GI50 [35]: > 10 µM (inactive)
GI50 [36]: > 100 µM (inactive)
GI50 [37]: > 100 µM (inactive)
GI50 [38]: > 100 µM (inactive)
GI50 [39]: > 100 µM (inactive)
GI50 [57]: > 100 µM (inactive)
GI50 [40]: > 100 µM (inactive)
GI50 [41]: > 100 µM (inactive)
GI50 [42]: > 100 µM (inactive)
GI50 [43]: > 100 µM (inactive)
GI50 [58]: > 100 µM (inactive)
GI50 [44]: > 100 µM (inactive)
GI50 [45]: > 100 µM (inactive)
GI50 [46]: > 100 µM (inactive)
GI50 [47]: > 100 µM (inactive)
GI50 [48]: > 100 µM
GI50 [49]: > 100 µM (inactive)
GI50 [50]: > 100 µM (inactive)
GI50 [51]: 28.3 µM (inactive)
GI50 [52]: > 100 µM (inactive)
GI50 [53]: > 100 µM (inactive)
GI50 [54]: > 100 µM (inactive)
GI50 [55]: > 100 µM (inactive)
GI50 [56]: > 100 µM (inactive)
